For the experiment, the system named is A2780 ovarian carcinoma cells. Briefly: Antiproliferative activity on A2780 cells (MTT). It counts as cell-based. The settings on record: Homo sapiens, 96 h, four days of incubation, read-out: Cellular activity pIC50 C.2 (converted). The protocol:
Cellular activity of the compounds of formula (I) was determined on A2780 tumour cells using a colorimetric assay for cell toxicity or survival (Mosmann Tim, Journal of Immunological Methods 65: 55-63, 1983)(see example C.2).
All compounds tested were dissolved in DMSO and further dilutions were made in culture medium. Final DMSO concentrations never exceeded 0.1% (v/v) in cell proliferation assays. Controls contained A2780 cells and DMSO without compound and blanks contained DMSO but no cells. MTT was dissolved at 5 mg/ml in PBS. A glycine buffer comprised of 0.1 M glycine and 0.1 M NaCl buffered to pH 10.5 with NaOH (1 N) was prepared (all reagents were from Merck).
The human A2780 ovarian carcinoma cells (a kind gift from Dr. T. C. Hamilton [Fox Chase Cancer Centre, Pennsylvania, USA]) were cultured in RPMI 1640 medium supplemented with 2 mM L-glutamine, 50 μg/ml gentamicin and 10% fetal calf serum. Cells were routinely kept as monolayer cultures at 37° C. in a humidified 5% CO2 atmosphere. Cells were passaged once a week using a trypsin/EDTA solution at a split ratio of 1:40. All media and supplements were obtained from Life Technologies. Cells were free of mycoplasma contamination as determined using the Gen-Probe Mycoplasma Tissue Culture kit (supplier: BioMérieux).
Cells were seeded in NUNC™ 96-well culture plates (Supplier: Life Technologies) and allowed to adhere to the plastic overnight. Densities used for plating were 1500 cells per well in a total volume of 200 μl medium. After cell adhesion to the plates, medium was changed and drugs and/or solvents were added to a final volume of 200 μl. Following four days of incubation, medium was replaced by 200 μl fresh medium and cell density and viability was assessed using an MTT-based assay. To each well, 25 μl MTT solution was added and the cells were further incubated for 2 hours at 37° C. The medium was then carefully aspirated and the blue MTT-formazan product was solubilized by addition of 25 μl glycine buffer followed by 100 μl of DMSO. […] Within an experiment, the results for each experimental condition are the mean of 3 replicate wells. For initial screening purposes, compounds were tested at a single fixed concentration of 10^−6 M. For active compounds, the experiments were repeated to establish full concentration-response curves. For each experiment, controls (containing no drug) and a blank incubation (containing no cells or drugs) were run in parallel. The blank value was subtracted from all control and sample values. For each sample, the mean value for cell growth (in absorbance units) was expressed as a percentage of the mean value for cell growth of the control. […] Herein the effects of test compounds are expressed as pIC50 (the negative log value of the IC50-value)(see Table F-2).

Turning to `Cn1c(CNCC2CCN(c3ncc(C(=O)NO)cn3)CC2)nc2ccccc21` [Compound 3], the IC50 is 100 nM.
